Data on two molecules can be found in US12427106B2, “Elastic sheet with function of re-activating endometrial basal layer in uterine cavity and forming method thereof” (YIPURUN (SHANGHAI) BIOTECHNOLOGY CO., LTD., priority 2018, dated 2025).

For data set [1] the following is noted: cited from earlier work.
Data set [2] in a line: blood concentration in vivo of New Zealand rabbits after implantation or oral dose. The method, then:
New Zealand rabbits within 10 weeks after the implantation. […] The blood concentrations of subjects were measured per 2 weeks, and the trend in vivo matched the release in vitro despite the few of data points. […] New Zealand rabbits within 10 weeks after the implantation. […] The blood concentrations of subjects were measured per 2 weeks, and the trend in vivo matched the release in vitro despite the few of data points. […] It can be seen from the FIG. that the blood concentration in vivo is consistent with the release in vitro trend, thus the treatment in vivo can be adjusted by the release in vitro. The following table gives a comparison of a relationship between the oral dose and the blood concentration in vivo and another relationship between the released drug of the elastic sheet and the blood concentration in vivo: Following table 10 gives a comparison of a relationship between the oral dose and the blood concentration in vivo and another relationship between the released drug of the elastic sheet and the blood concentration in vivo: […]

Data set [3] is described as follows: blood concentration in vivo of subjects after implantation or oral dose. The method, then:
The blood concentrations of subjects were measured per 2 weeks, and the trend in vivo matched the release in vitro despite the few of data points.
It can be seen from the FIG. that the blood concentration in vivo is consistent with the release in vitro trend, thus the treatment in vivo can be adjusted by the release in vitro.
The following table gives a comparison of a relationship between the oral dose and the blood concentration in vivo and another relationship between the released drug of the elastic sheet and the blood concentration in vivo: […]

Each structure is given as a SMILES string.

With `CCCCC(=O)O[C@H]1CC[C@H]2[C@@H]3CCc4cc(O)ccc4[C@H]3CC[C@]12C` [estradiol valerate], the “increase of the serum concentration of estradiol (E2)” value in data set [1] (oral administration of 4 mg (2 mg bid)) was 211.89 ± 57.40 pg/mL. Also, in data set [1] (vaginal versus oral), the “absorption effect of vaginal administration relative to oral administration” value was 4 to 8 times.

Take `C[C@]12CC[C@@H]3c4ccc(O)cc4CC[C@H]3[C@@H]1CC[C@@H]2O` [estradiol]: the Blood concentration in data set [2] (Oral dose 1000 μg/d) was 0.1112 nM; in data set [2] (Oral dose 2000 μg/d), 0.2558 nM; in data set [2] (Oral dose 3000 μg/d), 0.4985 nM; in data set [3] (Oral dose 1000 μg/d), 0.1112 nM; in data set [3] (Oral dose 2000 μg/d), 0.2558 nM; in data set [3] (Oral dose 3000 μg/d), 0.4985 nM. In data set [3] (Oral dose 4000 μg/d), this molecule had a Blood concentration of 0.9893 nM.
